Experimental data reported in patent publication US9261498B2, “Biomarker for sensitivity to mTOR inhibitor therapy in kidney cancer” (The Regents of the University of California, priority 2005, dated 2016).

Test system: VHL knockdown xenograft tumors
Experiment: FDG microPET imaging of xenograft tumors
Type: in vivo, SCID mice
Settings: within 24 hours, CCI-779 0.1 mg/kg i.p. every 12 hours; uptake normalized to liver
Description: FIGS. 5A-5B. […] (a) Representative images of two SCID-mice bearing isogenic ACHN-xenograft tumors on the right flank before and after two doses of CCI-799 (0.1 mg/kg). Arrows indicate the location of subcutaneous xenograft tumors (innate increased signal intensity due to abdominal brown fat and glial tissue are observed in the thorax and skull of the mice). (b) Quantification of FDG uptake (+/−SEM) in SCID-mice bearing either ACHN-vector or ACHN-CSCG VHL shRNA subcutaneous xenografts. FDG-tumor uptake was normalized to hepatic FDG-uptake for each mouse. n=3 per group and experiments were repeated twice with identical results.
Total RNA was extracted from SN12C-CSCG, ACHN-CSCG, SN12C-CSCG-VHLshRNA and ACHN-CSCG-VHL shRNA cell lines treated with vehicle or 10 nM of CCI-779 using the RNeasy kit (Qiagen). Two μg of total RNA was used as a template for the production of c DNA through reverse transcription. […] Threshold cycles (Ct's) for the RT samples were recorded. […] Tracer uptake by the tumors was expressed as the ratio between the maximum intratumoral and mean hepatic counts/pixel. All quantitative values are reported as mean±standard error of the mean (SEM).

In the case of `CO[C@H]1C[C@@H]2CC[C@@H](C)[C@@](O)(O2)C(=O)C(=O)N2CCCC[C@H]2C(=O)O[C@H]([C@H](C)C[C@@H]2CC[C@@H](OC(=O)C(C)(CO)CO)[C@H](OC)C2)CC(=O)[C@H](C)/C=C(\C)[C@@H](O)[C@@H](OC)C(=O)[C@H](C)C[C@H](C)/C=C/C=C/C=C/1C` [CCI-779], the “FDG uptake of VHL knockdown tumors” value is reported as “reduced to baseline”.
